Test results from patent publication US20210369664A1, “PROPHYLACTIC OR THERAPEUTIC AGENT FOR PULMONARY HYPERTENSION WHICH COMPRISES PPAR? AGONIST” (TOHOKU UNIVERSITY, priority 2016, published 2021).

What was measured:
[1] = tested on: hypoxia-induced pulmonary hypertension mice; details: WY-14643 3 mg/kg/day by mixed feed
Method: Hypoxia-induced pulmonary hypertension mice serving as a model generally used in an animal experiment for pulmonary hypertension were administered a PPARα agonist (WY-14643, Sigma) at 3 mg/kg/day by mixed feed. Specifically, first, 8-week-old male wild-type mice (Balb/c mice, n=12 per group) were housed in a transparent acrylic box with an oxygen concentration controlled to 10% using a hypoxia generator (Teijin Limited, Japan) under a 12 h light and dark cycle. The mice were stimulated by hypoxia for 3 weeks, and a diet in this period was mixed with WY-14643 (the following solution was used as WY-14643: 1 mg of WY-14643 was dissolved in 0.1 ml of DMSO, and the solution of WY-14643 in DMSO was mixed with ultrapure water (mQ or ultrapure water) to prepare a 100 ml solution). The administration by mixed feed was performed at 3 mg/kg/day according to the previous report (Andrew D, et al. Hepatology. 2012; 56: 281-290). […] The following tests were also performed as controls: a test in which the mice were stimulated by hypoxia in the same manner as described above except that the mice were administered a 1:1,000 (V/V) mixed solution of DMSO and ultrapure water by mixed feed in place of WY-14643 as a diet; and a test in which the mice were administered the mixed solution of DMSO and ultrapure water by mixed feed in place of WY-14643 as a diet and were not stimulated by hypoxia.
(§1) After the hypoxic stimulation for 3 weeks, a 1.2-Fr catheter (SciSense Inc., Ontario, Canada) was inserted in the jugular vein of the mice under isoflurane anesthesia and advanced into the right ventricle to measure a right ventricular systolic pressure. In addition, after the measurement of the right ventricular systolic pressure, the heart and the lungs were dissected. For the heart, the right ventricle and the left ventricle were separated and their weight ratio was measured to assess right ventricular hypertrophy.
In addition, in tissue slides of the formalin-fixed lungs of each group, the number of pulmonary vessels including thrombi was counted for a field of about 100 mm^2, and the number of the pulmonary vessels including thrombi per 100 mm^2 was calculated. […] The resultant plasma sample was measured for its D-dimer concentration in plasma (unit: ng/ml) through the use of an ELISA kit (CEA506Mu manufactured by Life Science Inc.) according to the instruction of the kit. In addition, the plasma sample was measured for its thrombin-antithrombin complex (TAT) concentration in plasma (unit: pg/ml) through the use of an ELISA kit (SEA831Mu manufactured by Life Science Inc.) according to the instruction of the kit.
The dissected lungs were fixed with 10% formalin for 24 hours, and then 3 μm sections of the specimens were used to prepare slides. The slides were subjected to Elastica-Masson staining for staining elastic fiber in order to assess vessel wall thickening (remodeling). 60 to 80 distal pulmonary arteries having diameters of from 20 μm to 70 μm were observed per mouse, and their wall thickening was divided into 3 stages.

[2] = Average body weight of the administration groups in the hypoxia test; assay type: in vivo
Method: as §1, with “hypertrophy. The average body weights of the Control group (PPARα agonist: −, Hypoxia [3 wks]: −), the Vehicle group (PPARα agonist: −, Hypoxia [3 wks]: +), and the WY-14643 administration group (PPARα agonist: +, Hypoxia [3 wks]: +) before the test were 29.2±1.2 g, 28.9±1.0 g, and 29.6±1.4 g, respectively. In addition, the average body weights of the Control group, the Vehicle group, and the WY-14643 administration group after the test were 32.1±2.1 g, 23.5±1.8 g, and 25.7±2.0 g, respectively.” for “hypertrophy.”

Cc1cccc(Nc2cc(Cl)nc(SCC(=O)O)n2)c1C [WY-14643, [[4-chloro-6-[(2,3-dimethylphenyl)amino]pyrimidin-2-yl]thio]acetic acid]
thrombus formation (number of pulmonary vessels including thrombi per 100 mm^2) ([1]; chronic hypoxic stimulation 3 weeks, lung tissue slides (FIG. 2)): suppressed the increase in thrombus formation
pulmonary hypertension (overall result) ([1]; hypoxia 3 weeks): ameliorated pulmonary hypertension
remodeling of distal pulmonary vessels (Elastica-Masson staining) ([1]; hypoxia 3 weeks (FIG. 3)): significant reduction
right ventricular hypertrophy (right ventricle/(left ventricle plus septum) weight ratio) ([1]; hypoxia 3 weeks, Balb/c mice (FIG. 1)): Significant reductions
D-dimer/TAT ratio (indicator of impaired fibrinolytic capacity) ([1]; hypoxia 3 weeks, plasma, ELISA (FIG. 2)): its reduction was found
right ventricular systolic pressure ([1]; hypoxia (10% oxygen) 3 weeks, Balb/c mice, vs vehicle (FIG. 1)): Significant reductions
average body weight after the test ([2]; WY-14643 administration group, 3 mg/kg/day, after 3 weeks hypoxia, Example 1): 25.7 ± 2.0 g

CC(C)OC(=O)C(C)(C)Oc1ccc(C(=O)c2ccc(Cl)cc2)cc1 [fenofibrate, isopropyl 2-[4-(4-chlorobenzoyl)phenoxy]-2-methylpropionate]
average body weight after the test ([2]; fenofibrate administration group, 50 mg/kg/day, Example 3): 334.30 ± 20.67 g
